Test results from patent US5814627A, “3, 5-disubstituted and 3, 4, 5-trisubstituted 2-isoxazolines and isoxazoles, process for their preparation and their use as pharmaceuticals” (Hoechst Aktienegesellschaft, priority 1994, dated 1998).
Structures can show the parent of a compound that is named as a salt. Blank lines part the entries; values can stand above or below the compound they belong to.

Assays:
[1] = test system: cyclooxygenase-dependent thrombocyte aggregation; assay: Test 5: Cyclooxygenase-dependent thrombocyte aggregation; format: cell-based, human; details: arachidonic acid as inducer; for activity at 25 µM / activity at 100 µM: Homo sapiens, read-out: Test 5 residual activity (cyclooxygenase-dependent thrombocyte aggregation), percent of control; for activity at 25 µM / Test 5 residual activity (cyclooxygenase-dependent thrombocyte aggregation), percent of control: 25 μM; for Test 5 residual activity (cyclooxygenase-dependent thrombocyte aggregation), percent of control: hydrochloride
Method: TEST 5. Cyclooxygenase-dependent thrombocyte aggregation
Platelet-rich plasma (PRP): to inhibit coagulation, human blood was treated with 1/10 of its volume of 3.8% sodium citrate solution. Centrifugation then takes place at 105×g for 20 minutes and the supernatant (PRP) is removed. 200 μl of PRP were preincubated, at 37° C. for 10 minutes, together with 30 μl of test substance in a PAP4 aggregometer (BioData). The test substance was dissolved in organic solvent and diluted 1:30 with buffer (50 mM TisHCl, pH 8.0; 90 mM NaCl). Aggregation is triggered with 20 μl of inducer. During the aggregation, stirring takes place at 800 rpm. Arachidonic acid, 5 mg/ml, was used as the inducer.
(§1) The values in the table show the concentration of the test substance which was employed in μM and, besides this, the residual activity measured in percent based on the control, which was set to be 100%. The interleukin is additionally indicated in test 4.

[2] = test system: polymorphonuclear leucocytes (PMNL); assay: Test 1: Release of proteolytic activity from human PMNL; format: cell-based; details: for activity at 10 µM / activity at 100 µM / activity at 1 µM: Homo sapiens, PMNL, read-out: Test 1 residual activity (release of proteolytic activity), percent of control; for Test 1 residual activity (release of proteolytic activity), percent of control: hydrochloride
Method: Isolation of polymorphonuclear leucocytes (PMNL) from human peripheral blood for carrying out tests 1 and 2 10 ml of human blood were diluted with 10 ml of HBSS (Serva) and underlaid with 15 ml of Lymphoprep (Dr. Molter GmbH, Heidelberg). […] A white ring, composed of mononuclear cells, is located between these two phases. The lowermost phase is composed of erythrocytes which are covered with a white layer of PMNL. The uppermost phase, and also the Lymphoprep and the white ring, were carefully removed using a syringe. The remaining sediment was carefully resuspended in 15 ml of 3% dextran in PM16 (mw: 485,000, Sigma, Deisenhofen). The suspension was then left to stand at room temperature for one hour. During this time, the erythrocytes sedimented while the PMNL remained in the supernatant. The supernatant was removed, diluted with an approximately equal volume of PM16, and centrifuged for 15 minutes at 400×g. Should the PMNL sediment be heavily contaminated with erythrocytes, it is necessary to carry out a hypotonic lysis. To do this, the sediment was resuspended in 750 μl of water. After exactly 15 seconds, the suspension was diluted with approximately 7 ml of PM16 and centrifuged for 10 minutes at 400×g. If necessary, this lysis was repeated once more. Otherwise, the PMNL sediment was resuspended in a suitable medium. 250 μl of PMNL (5·10^6 cells/ml of PBS containing 7.5 mM glucose) were incubated at 37° C. for 20 minutes with 1 μl of test substance. 1 μl of cytochalasin B (5 μg/ml of test mixture) was then added and the mixture was incubated at 37° C. for a further 5 minutes. Following the addition of 1 μl of […] necrosis factor alpha (TNF; 30 ng/ml of test mixture), the incubation was continued for 5 minutes. The release was started using 1 μl of fMLP (10 nmol/l of test mixture). After 60 minutes at 37° C., the reaction was terminated by cooling the samples down to 0° C. The samples were then centrifuged, and the supernatant was removed and frozen down. Cytochalasin B and fMLP were dissolved in DMSO and TNF was diluted with buffer. 50 μl of the supernatant were mixed with 175 μl of buffer (100 mM HEPES, pH 7.5; 500 mM NaCl) in a 96-well microtiter plate. Following the addition of 25 μl of substrate (methoxysuccinyl-[…]-nitroanilide), the extinction of each well was measured at 405 nm after 0, 5, 10, 15, 30 and 60 minutes. […] The interleukin is additionally indicated in test 4.

[3] = test system: adjuvant/arthritis model; assay: Test 6: antiarthritic effect in the adjuvant/arthritis model; format: in vivo, rat (Wistar-Lewis); details: daily for 17 days, rat; for inhibition in vivo at 50 mg/kg / inhibition in vivo at 25 mg/kg: Rattus norvegicus, po, 408 h, read-out: Test 6 Paw volume (% inhibition); for inhibition in vivo at 50 mg/kg: 50 mg/kg orally; for inhibition in vivo at 25 mg/kg / Test 6 Paw volume (% inhibition): 25 mg/kg orally; for Test 6 Paw volume (% inhibition): hydrochloride
[4] = test system: tumor cell line 20-10-5S (hybridoma cell line); assay: Test 8: Inhibition of tumor cell proliferation; format: cell-based; details: 48 h + 16 h tritiated thymidine incorporation; 20-10-5S cells
Method: The tumor cell line 20-10-5S (hybridoma cell line, supplied by ATCC (American Type Culture Collection)), which produces an antibody against mouse T cells) was used for determining the antiproliferative property of test substances. The cells were cultured, at 37° C. and 5% C2, under serum-free conditions in CG medium (cell-growth medium=Iscove-ATL (+albumin+transferrin+lipids); from Vitromex, Vilshofen). Only cells which were in the logarithmic phase of growth were used for the test mixture. The test substances were pipetted in various concentrations (from 1 to 50 μM), together with 4×10^3 20-10-5S cells, into round-bottomedmicrotiter plates (total volume with medium, 200 μl). After an incubation time of 48 h (37° C. and 5% CO2), 25 μl of tritiated thymidine (=0.25 μCi/test mixture, specific activity, 23 Ci/mM) were added to the plates. During the subsequent 16 h, the radioactively labeled thymidine was incorporated into the DNA of the growing cells. The samples were filtered off with suction on glass fiber filters and the incorporated radioactivity was measured using a β counter (Beta Plate System 1205 from Wallac).

[5] = test system: PAF-induced asthma attack; assay: Test 7: antiasthmatic effect, PAF-induced asthma attack; format: in vivo; details: Cavia porcellus; i.d., 15 minutes before PAF; guinea pig
Method: Test 7: Testing for antiasthmatic effect
Anesthetized guinea pigs, which were cannulated in the jugular vein to allow injection of the PAF, were used for testing for antiasthmatic effect. The test preparations were also administered intravenously (i.v.), 5 min before PAF administration, into the blood stream through the same venous cannula, or else administered intraduodenally (i.d.), 15 minutes before the PAF, through an opening in the duodenum which had been installed and cannulated surgically. The bronchial width was recorded in an overflow pneumonogram before and after administering the preparation. Evaluation: ED50 in mg/kg i.d. as compared with the PAF-induced asthma attack.

[6] = test system: leukotriene B4 synthesis in white blood cells; assay: Test 3: LTB4 formation by white blood cells; format: cell-based; details: Homo sapiens; 10 μM; read-out: Test 3 residual activity (LTB4 formation), percent of control
Method: TEST 3. LTB4 formation by white blood cells
Isolation of white blood cells:
40 ml of human blood were mixed with 8 ml of 6% dextran solution (dextran, mw: 480,000 in PM16). After one hour at room temperature, the supernatant,which was composed of white blood cells, was removed, diluted with an equal volume of PM16, and centrifuged for 15 minutes at 300×g (1600 rpm). The sediment was next resuspended in approximately 5-6 ml of PM16 and, once the cell count had been determined in a Coulter Counter, adjusted to 10^7 cells/ml.
The test mixture comprised 0.24 ml of cell suspension, 0.03 ml of 20 mM CaCl2 /5 mM MgCl2 and 5 μl of test substance. Following 15 minutes of preincubation at 37° C., the reaction was started with 0.03 ml of A23187/glutathione (100 μg of A23187/ml; 15.4 μg of glutathione/ml). The incubation was terminated after 5 minutes at 37° C. by immediate cooling of the samples down to 0° C. After centrifuging for 2 minutes in an Eppendorff Centrifuge (0° C.), the supernatant was removed and examined chromatographically.
High pressure liquid chromatography (HPLC): the HPLC equipment comprises a Kratos pump (Spectro-flow 400), a cooled automatic BT 7041 sample injector (Biotronik) having a 75 μl sample loop, a Nucleosil C18 column (100*3 mm, 5 μm particles of Chrompack), a UV detector (Kratos) Spectroflow 757 (wavelength: 280 nm, measurement range: 0.1 AUFS, time constant: 0.5 s) and a Spectra Physics integrator (SP 4270). The eluent (725 ml of methanol, 275 ml of water and 0.1 ml of acetic acid) was supplied at a flow rate of 0.7 ml/minute and at a pressure of about 100 bar.
When doing this, the measurement range which has been set can be examined and altered if necessary. It is also vital to measure the test substances at the particular test concentration (e.g.: 10^-5 M) in PM16 before the cell incubation, since the test substances might conceal the LTB4 peak. If this is the case, a lower concentration must be selected.
as §1

Compound: COP(=O)(OC)C1CC(c2cc(C(C)(C)C)c(O)c(C(C)(C)C)c2)=NO1 (centres unmarked) [Example 5]
activity at 100 µM [1]: 98% | ED50 [5]: < 10 mg/kg

Compound: CC(C)(C)c1cc(C2=NOC(P(=O)(O)O)C2)cc(C(C)(C)C)c1O (centres unmarked) [Example 6, 3-(4-Hydroxy-3,5-di-tert-butylphenyl)-2-isoxazolin-5-ylphosphonic acid]
ED50 [5]: ~50 mg/kg

Compound: CC(C)(OCc1cc(-c2cc(C(C)(C)C)c(O)c(C(C)(C)C)c2)no1)C(=O)O [Example 36, 2-(3-(4-Hydroxy-3,5-di-tert-butylphenyl)isoxazol-5-ylmethoxy)-2-methylpropionic acid]
activity at 100 µM [1]: 87% | activity at 10 µM [6]: 93%

Compound: CC(C)(C)c1cc(-c2cc(COC(=O)NCC(=O)O)on2)cc(C(C)(C)C)c1O [Example 40, N-(3-(4-Hydroxy-3,5-di-tert-butylphenyl)isoxazol-5-ylmethoxycarbonyl)glycine]
IC50 [4]: < 5 µM | ED50 [5]: 1 to 3 mg/kg

Compound: CC(C)(C)c1cc(-c2cc(CCOC(=O)NCC(=O)O)on2)cc(C(C)(C)C)c1O [Example 43, N-(2-(4-Hydroxy-3,5-di-tert-butylphenyl)isoxazol-5-ylethoxycarbonyl)glycine]
activity at 100 µM [1]: 99% | activity at 10 µM [6]: 93%

Compound: Cc1oncc1C(=O)NCc1cc(-c2cc(C(C)(C)C)c(O)c(C(C)(C)C)c2)no1 [Example 52]
IC50 [4]: < 5 µM | ED50 [5]: 3 to 10 mg/kg

Compound: CCOC(=O)CNC(=O)NCc1cc(-c2cc(C(C)(C)C)c(O)c(C(C)(C)C)c2)no1 [Example 54, Ethyl (3-(3-(4-hydroxy-3,5-di-tert-butylphenyl)isoxazol-5-ylmethyl)ureido) acetate]
IC50 [4]: 5 to 10 µM | ED50 [5]: 1 to 3 mg/kg

Compound: CC(C)(C)c1cc(-c2cc(CNC(=O)NCC(=O)O)on2)cc(C(C)(C)C)c1O [Example 56, (3-(3-(4-Hydroxy-3,5-di-tert-butylphenyl)isoxazol-5-ylmethyl)ureido)acetic acid]
ED50 [5]: ~50 mg/kg

Compound: CC(C)(C)c1cc(C2CC(c3ccncc3)=NO2)cc(C(C)(C)C)c1O (centres unmarked) [Example 60, 3-(4-Pyridyl)-5-(4-hydroxy-3,5-di-tert-butylphenyl)-2-isoxazoline]
activity at 10 µM [6]: 88%

Compound: CC(OC(=O)CN)c1cc(-c2cc(C(C)(C)C)c(O)c(C(C)(C)C)c2)no1 (centres unmarked) [Example 76, Glycine-1-(3-(4-hydroxy-3,5-di-tert-butylphenyl)isoxazol-5-yl)ethyl ester hydrochloride]
activity at 25 µM [1]: 99% | activity at 10 µM ([2]; 10 μM): 68% | activity at 100 µM [2]: 9% | inhibition in vivo at 50 mg/kg [3]: 70% | IC50 [4]: 20 µM

Second part, led by results:

IC50 [4]: 20 µM
Compound: C[C@@H](OC(=O)CN)[C@@H]1CC(c2cc(C(C)(C)C)c(O)c(C(C)(C)C)c2)=NO1 (relative stereo) [Example 77, Glycine-1-(3-(4-hydroxy-3,5-di-tert-butylphenyl)-2-isoxazoline-5-yl)ethyl ester hydrochloride]
activity at 25 µM [1]: 100% | activity at 10 µM ([2]; 10 μM): 74% | activity at 100 µM [2]: 30% | inhibition in vivo at 50 mg/kg [3]: 82%

IC50 [4]: 5 to 10 µM
Compound: CC(OC(=O)[C@@H](N)Cc1ccccc1)c1cc(-c2cc(C(C)(C)C)c(O)c(C(C)(C)C)c2)no1 (single isomer, unassigned) [Example 71, L-Phenylalanine-1-(3-(4-hydroxy-3,5-di-tert-butylphenyl)isoxazol-5-yl)ethylester hydrochloride]
activity at 25 µM [1]: 97% | activity at 1 µM ([2]; 1 μM): 79% | activity at 10 µM ([2]; 10 μM): 42% | inhibition in vivo at 25 mg/kg [3]: 66%

IC50 [4]: 5 to 10 µM
Compound: CC(OC(=O)[C@@H](N)Cc1ccccc1)c1cc(-c2cc(C(C)(C)C)c(O)c(C(C)(C)C)c2)no1.Cl (single isomer, unassigned) [Example 72, L-Phenylalanine-1-(3-(4-hydroxy-3,5-di-tert-butylphenyl)isoxazol-5-yl)ethylester hydrochloride]
Test 5 residual activity (cyclooxygenase-dependent thrombocyte aggregation), percent of control [1]: 100% | Test 1 residual activity (release of proteolytic activity), percent of control ([2]; 1 μM): 82% | Test 1 residual activity (release of proteolytic activity), percent of control ([2]; 10 μM): 51% | Test 6 Paw volume (% inhibition) [3]: 60%

IC50 [4]: 5 to 10 µM
Compound: CC(OC(=O)[C@@H](N)Cc1ccccc1)C1CC(c2cc(C(C)(C)C)c(O)c(C(C)(C)C)c2)=NO1 (single isomer, unassigned) [Example 74, L-Phenylalanine-1-(3-(4-hydroxy-3,5-di-tert-butylphenyl)isoxazolin-5-yl)ethyl ester hydrochloride]
activity at 25 µM [1]: 95% | activity at 10 µM ([2]; 10 μM): 64% | inhibition in vivo at 25 mg/kg [3]: 60%

IC50 [4]: 5 to 10 µM
Compound: CC(OC(=O)[C@@H](N)Cc1ccccc1)C1CC(c2cc(C(C)(C)C)c(O)c(C(C)(C)C)c2)=NO1 (single isomer, unassigned) [Example 75, L-Phenylalanine-1-(3-(4-hydroxy-3,5-di-tert-butylphenyl)isoxazolin-5-yl)ethyl ester hydrochloride]
Test 5 residual activity (cyclooxygenase-dependent thrombocyte aggregation), percent of control [1]: 98% | Test 1 residual activity (release of proteolytic activity), percent of control ([2]; 10 μM): 49% | activity at 1 µM ([2]; 1 μM): 89% | Test 6 Paw volume (% inhibition) [3]: 76%
